Converted amounts (≈) assume the structure as drawn.
How the values were obtained:
S. pneumoniae = test: MIC, broth microdilution; type: cell-based, Streptococcus pneumoniae
Outline: (§1)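 Incubation ran for 16–20 h at 37 °C after setup per Clinical and Laboratory Standards Institute microdilution procedure. Growth was then observed to assign the MIC. Assays were replicated at least three times.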

S. pyogenes = test: MIC, broth microdilution; type: cell-based, Streptococcus pyogenes
Outline: as §1

WT S. aureus ribosomes = test: PURE in vitro translation inhibition assay; type: biochemical, Staphylococcus aureus; conditions: mean ± SD
Protocol: (§2) To validate the in vitro activity of our compounds, we employed an in vitro reconstituted E. coli Protein synthesis Using a Recombinant Elements (PURE) translation system, substituting E. coli ribosomes with the purified S. aureus ribosomes.
(§3) 5 μL of PURE reaction mix that translates a gene encoding the Nanoluc luciferase was set up in the presence or absence of tested compounds. Protein synthesis was initiated by incubating reactions at 37 °C for 60 min and stopped by placing on ice for 5 min. Luciferase activity was quantified using the Nano-Glo luciferase assay system and read on a GloMax 20/20 luminometer (Promega, USA). For each compound, the in vitro translation inhibition assay was performed in three biological triplicates over a range of concentrations from 0.001 μM to 1000 μM. A compound-free control was used to normalize luminescence measurements. The calculated luminescence percentages were plotted against compound concentrations on a semilog scale using GraphPad Prism.

[1] = tested on: 15B196 S. aureus ribosomes (A2058-methylated); test: PURE in vitro translation inhibition assay; type: biochemical, Staphylococcus aureus; conditions: mean ± SD
Protocol: as §2, §3

[2] = CCK-8 assay for cytotoxicity; type: cell-based, human; conditions: human, HEK293T cells, HEK293T cell viability
Protocol: HepG2 cells (6 × 10^3) and HEK293T cells (4 × 10^3) were seeded into 96-well plates in 90 μL of DMEM medium containing 10% FBS per well. […] After overnight incubation, the test compound stock solution was diluted with DMEM medium containing 10% FBS to every target concentration, and 10 μL of each was added to each well. Three parallel experiments were set up for each compound. After incubation for 48 h, 10 μL of cell counting kit-8 (CCK-8) reagent was added to each well in sequence according to the manufacturer’s instructions. […] This experiment was independently repeated three times. The data were processed by GraphPad Prism.

human ribosome = tested on: human ribosome; set-up: method as in PMID 32601485; conditions: read-out: IC50, inhibition on human ribosome; cited from earlier work

SMILES: CC[C@H]1OC(=O)[C@H](C)[C@@H](O[C@H]2C[C@@](C)(OC)[C@@H](O)[C@H](C)O2)[C@H](C)[C@@H](O[C@@H]2O[C@H](C)C[C@H](N(C)C)[C@H]2O)[C@](C)(O)C[C@@H](C)C(=O)[C@H](C)[C@@H](O)[C@]1(C)O [erythromycin, reference compound]
- MIC (S. pneumoniae; S. pneumoniae 21Q352, Clinical, i-MLSB): 64 µg/mL (≈ 87.2 µM)
- MIC (S. pneumoniae; S. pneumoniae 21Q353, Clinical, i-MLSB): 32 µg/mL (≈ 43.6 µM)
- MIC (S. pneumoniae; S. pneumoniae 21X435, Clinical): 0.03 µg/mL (≈ 0.0409 µM)
- MIC (S. pneumoniae; S. pneumoniae ATCC49619): 0.03 µg/mL (≈ 0.0409 µM)
- MIC (S. pyogenes; S. pyogenes 01-968, Clinical, i-ermB): 1 µg/mL (≈ 1.36 µM)
- MIC (S. pyogenes; S. pyogenes 12-207, Clinical, mef): 16 µg/mL (≈ 21.8 µM)
- MIC (S. pyogenes; S. pyogenes 21K003, Clinical, mef): 16 µg/mL (≈ 21.8 µM)
- IC50 (WT S. aureus ribosomes): 0.18 ± 0.03 µM
- IC50 [1]: > 10 µM
- CC50 at 48 h [2]: > 100 µM

SMILES: COC(=O)c1c(OC)cc2cc3c(c(O)c2c1C)C(=O)[C@]1(OC)C(=O)C=C(OC)[C@@H](O)[C@]1(O)C3=O [TcmX, tetracenomycin X]
- IC50 (human ribosome): 10 µM

From publication PMC11239830, “Synthetic macrolides overcoming MLSBK-resistant pathogens” (Cell Discovery, 2024)
